Assay results reported in US11639352B2, “Benzothiazole compounds for the treatment of autoimmune diseases” (Hoffmann-La Roche Inc., priority 2018, dated 2023).

What follows are compounds tested against T1, human TLR8 (Homo sapiens, UniProt Q9NR97) (assay: HEK293-Blue-hTLR-8 cells assay (SEAP reporter, R848 stimulation)). Settings: HEK293-Blue-hTLR8 cells, R848 ligand, 20 hrs incubation, antagonist.
T1 sequence (Q9NR97 27-1041): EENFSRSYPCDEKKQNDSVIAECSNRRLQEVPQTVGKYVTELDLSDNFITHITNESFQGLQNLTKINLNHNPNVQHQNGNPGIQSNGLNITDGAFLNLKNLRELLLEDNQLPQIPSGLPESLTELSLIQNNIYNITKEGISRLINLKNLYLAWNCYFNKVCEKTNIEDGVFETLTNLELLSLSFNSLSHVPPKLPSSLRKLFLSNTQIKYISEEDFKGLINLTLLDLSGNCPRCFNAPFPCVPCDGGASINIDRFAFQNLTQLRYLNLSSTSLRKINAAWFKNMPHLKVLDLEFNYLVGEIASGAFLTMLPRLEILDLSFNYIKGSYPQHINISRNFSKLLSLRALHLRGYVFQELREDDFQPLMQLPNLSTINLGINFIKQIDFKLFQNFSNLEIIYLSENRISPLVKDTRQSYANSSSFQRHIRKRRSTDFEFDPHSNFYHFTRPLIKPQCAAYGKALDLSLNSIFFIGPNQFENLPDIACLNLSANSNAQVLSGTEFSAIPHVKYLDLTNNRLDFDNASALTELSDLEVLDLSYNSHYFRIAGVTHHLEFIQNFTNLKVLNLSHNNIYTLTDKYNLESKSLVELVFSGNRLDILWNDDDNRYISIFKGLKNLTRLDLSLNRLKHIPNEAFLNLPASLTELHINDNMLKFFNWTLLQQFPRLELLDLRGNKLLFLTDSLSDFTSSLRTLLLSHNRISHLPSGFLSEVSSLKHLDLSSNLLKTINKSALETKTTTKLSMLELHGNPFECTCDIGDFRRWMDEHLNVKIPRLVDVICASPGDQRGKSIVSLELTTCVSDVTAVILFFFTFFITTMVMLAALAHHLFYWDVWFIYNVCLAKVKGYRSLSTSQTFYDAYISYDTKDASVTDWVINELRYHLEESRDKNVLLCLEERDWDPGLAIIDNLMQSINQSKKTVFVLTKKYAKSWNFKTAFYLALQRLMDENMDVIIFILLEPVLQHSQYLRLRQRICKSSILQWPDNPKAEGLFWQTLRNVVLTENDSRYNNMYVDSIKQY
Type: cell-based
Protocol: The following tests were carried out in order to determine the activity of the compounds of formula (I) in HEK293-Blue-hTLR-7/8/9 cells assay.
HEK293-Blue-hTLR-8 Cells Assay:
A stable HEK293-Blue-hTLR-8 cell line was purchased from InvivoGen (Cat. #: hkb-htlr8, San Diego, Calif., USA). These cells were originally designed for studying the stimulation of human TLR8 by monitoring the activation of NF-κB. A SEAP (secreted embryonic alkaline phosphatase) reporter gene was placed under the control of the IFN-β minimal promoter fused to five NF-κB and AP-1-binding sites. The SEAP was induced by activating NF-κB and AP-1 via stimulating HEK-Blue hTLR8 cells with TLR8 ligands. Therefore the reporter expression was declined by TLR8 antagonist under the stimulation of a ligand, such as R848, for incubation of 20 hrs. The cell culture supernatant SEAP reporter activity was determined using QUANTI-Blue™ kit (Cat. #: rep-qb1, Invivogen, San Diego, Calif., USA) at a wavelength of 640 nm, a detection medium that turns purple or blue in the presence of alkaline phosphatase.
HEK293-Blue-hTLR8 cells were incubated at a density of 250,000˜450,000 cells/mL in a volume of 170 μL in a 96-well plate in Dulbecco's Modified Eagle's medium (DMEM) containing 4.5 g/L glucose, 50 U/mL penicillin, […], […], 2 mM L-glutamine, 10% (v/v) heat-inactivated fetal bovine serum with addition of 20 μL test compound in a serial dilution in the presence of final DMSO at 1% and 10 μL of 60 uM R848 in above DMEM, perform incubation under 37° C. in a CO2 incubator for 20 hrs. Then 20 μL of the supernatant from each well was incubated with 180 μL Quanti-blue substrate solution at 37° C. for 2 hrs and the absorbance was read at 620˜655 nm using a spectrophotometer. The signalling pathway that TLR8 activation leads to downstream NF-κB activation has been widely accepted, and therefore similar reporter assay was modified for evaluating TLR8 antagonist.

SMILES | IC50 [nM]
C[C@@H]1CN(c2ccc(C#N)c3ncsc23)C[C@H](CN2[C@@H]3CC[C@H]2C[C@@H](N)C3)O1 [Example 8, Endo-7-[(2S,6R)-2-[[(1R,5S)-3-amino-8-azabicyclo[3.2.1]octan-8-yl]methyl]-6-methyl-morpholin-4-yl]-1,3-benzothiazole-4-carbonitrile] | < 3
C[C@@H]1CN(c2ccc(C#N)c3ncsc23)C[C@H](CN2CCC(N3CCCCC3)CC2)O1 [Example 7, 7-[(2R,6S)-2-methyl-6-[[4-(1-piperidyl)-1-piperidyl]methyl]morpholin-4-yl]-1,3-benzothiazole-4-carbonitrile] | < 3
C[C@@H]1CN(c2ccc(C#N)c3ncsc23)C[C@H](CN2[C@@H]3CC[C@H]2C[C@H](N)C3)O1 [Example 9, Exo-7-[(2S,6R)-2-[[(1S,5R)-3-amino-8-azabicyclo[3.2.1]octan-8-yl]methyl]-6-methyl-morpholin-4-yl]-1,3-benzothiazole-4-carbonitrile] | 8
C[C@@H]1CN(c2ccc(C#N)c3ncsc23)C[C@H](CN2CCC3(CCCN(C)C3)CC2)O1 [Example 10, 7-[(2R,6S)-2-methyl-6-[(2-methyl-2,9-diazaspiro[5.5]undecan-9-yl)methyl]morpholin-4-yl]-1,3-benzothiazole-4-carbonitrile] | < 3
C[C@@H]1CN(c2ccc(C#N)c3ncsc23)C[C@H](CN2CCC3(CCNCC3)CC2)O1 [Example 5, 7-[(2S,6R)-2-(3,9-diazaspiro[5.5]undecan-3-ylmethyl)-6-methyl-morpholin-4-yl]-1,3-benzothiazole-4-carbonitrile] | 107
C[C@@H]1CN(c2ccc(C#N)c3ncsc23)C[C@H](C(=O)NCC2CN(C)CCO2)O1 (stereo partly drawn) [Example 12, (2R,6R)-4-(4-cyano-1,3-benzothiazol-7-yl)-6-methyl-N-[(4-methylmorpholin-2-yl)methyl]morpholine-2-carboxamide] | < 3
C[C@@H]1CN(c2ccc(C#N)c3ncsc23)C[C@H](CN2CCC3(CCCNC3)CC2)O1 [Example 3, 7-[(2S,6R)-2-(2,9-diazaspiro[5.5]undecan-9-ylmethyl)-6-methyl-morpholin-4-yl]-1,3-benzothiazole-4-carbonitrile] | 12
C[C@@H]1CN(c2ccc(C#N)c3ncsc23)C[C@H](CN2CCC(N)CC2)O1 [Example 2, 7-[(2S,6R)-2-[(4-amino-1-piperidyl)methyl]-6-methyl-morpholin-4-yl]-1,3-benzothiazole-4-carbonitrile] | 5
C[C@@H]1CN(c2ccc(C#N)c3ncsc23)C[C@H](CN2CC3(CCCNC3)C2)O1 [Example 4, 7-[(2S,6R)-2-(2,8-diazaspiro[3.5]nonan-2-ylmethyl)-6-methyl-morpholin-4-yl]-1,3-benzothiazole-4-carbonitrile] | 14
C[C@@H]1CN(c2ccc(C#N)c3ncsc23)C[C@H](C(=O)NC2CCN(C)CC2)O1 [Example 11, (2R,6R)-4-(4-cyano-1,3-benzothiazol-7-yl)-6-methyl-N-(1-methyl-4-piperidyl)morpholine-2-carboxamide] | < 3
C[C@@H]1CN(c2ccc(C#N)c3ncsc23)C[C@H](CN2CCC3(CCNC3)CC2)O1 [Example 6, 7-[(2S,6R)-2-(2,8-diazaspiro[4.5]decan-8-ylmethyl)-6-methyl-morpholin-4-yl]-1,3-benzothiazole-4-carbonitrile] | 22
C[C@@H]1CN(c2ccc(C#N)c3ncsc23)C[C@H](CN2CCC3(CCCNC3)C2)O1 (stereo partly drawn) [Example 1, 7-[(2S,6R)-2-(2,9-diazaspiro[4.5]decan-2-ylmethyl)-6-methyl-morpholin-4-yl]-1,3-benzothiazole-4-carbonitrile] | < 3
